Here are results for two compounds from article PMC6680701, “Brain Delivery of Thyrotropin-Releasing Hormone via a Novel Prodrug Approach” (Pharmaceutics, 2019).

Square brackets hold non-standard residues; d marks the D form. Peptide text beside a SMILES is read from it. ξ: configuration not given here. ξGly(decyl) = CCCCCCCCCCC(N)C(=O)O Where only a bound is given, the exact number is not on record here.

The nature of data set [1]: In vitro metabolic stability in brain homogenate. The data set is classed as in vitro ADME. The following applies: mouse, male CD-1 mouse brain homogenate, 10 µM test compound. How it is done: (§1) Metabolic stability studies were carried out as reported before using freshly made brain homogenate (20% w/v) and plasma at 37 °C, in triplicate. For obtaining brain homogenates, a Bead Bug microtube homogenizer (Benchmark Scientific, Edison, NJ, USA) was used. For obtaining plasma, blood was collected in BD Vacutainer® Sodium Heparin tubes (Becton, Dickinson and Co., Franklin Lakes, NJ, USA) followed by centrifugation. Each biological matrix was spiked with compound (1) or TRH to create 10 µM solutions. KYP-2047, a POP inhibitor, was used in selected experiments at 50 µM concentration. Sample aliquots (100 µL) of TRH-containing matrices were removed after 2, 4, 6, 8, 10, 15, and 30 min, while sample aliquots (100 µL) of prodrug-containing matrices were obtained at 5, 10, 20, 30, 40, 60, 90, 120, and 210 min. Sample aliquots were added to 200 µL of acetic acid solution (20% v/v) in acetonitrile, thoroughly vortexed and, then, centrifuged before LC–MS/MS analysis. For LC separation, a Kinetex-C8 column (10 cm × 4.6 mm i.d., dp = 2.6 µm; Phenomenex; Torrance, CA, USA) with the eluent mixed from (A) H2O with 0.1% (v/v) formic acid and (B) acetonitrile with 0.1% (v/v) formic acid, flow rate of 400 µL/min, and gradient elution by a 10-min linear program from 0% B to 90% B were employed. Half-life (t1/2) values were calculated by assuming pseudo-first-order degradation.

Data set [2] is described as follows: In vitro metabolic stability in plasma. The class given is in vitro ADME. The conditions noted are these: male CD-1 mouse plasma, 10 µM test compound, n = 3, ± SD; for half-life: mouse, plasma, read-out: t1/2 in Plasma. As to the method: as §1
Where [3] appears, read: 37 °C, n = 3, ± SD, read-out: t1/2 in 20% (w/v) Brain Homogenate.

Regarding `NC(=O)[C@@H]1CCCN1C(=O)[C@H](Cc1cnc[nH]1)NC(=O)[C@@H]1CCC(=O)N1` [TRH, pGlu-His-Pro-NH2, reference compound], the half-life is < 5 min in data set [1] (setting [3]) and ~7 min in data set [2] (37 °C).
Consider `CCCCCCCCCCC(N)C(=O)NC(CCCCCCCCCC)C(=O)N1CCC[C@H]1C(=O)N1CCC[C@H]1C(=O)N[C@@H](CCC(N)=O)C(=O)N[C@@H](Cc1c[nH]cn1)C(=O)N1CCC[C@H]1C(N)=O` (stereo partly drawn) [(1), C12-C12-Pro-Pro-Gln-His-Pro-NH2] (H-[ξGly(decyl)][ξGly(decyl)]PPQHP-NH2), for which the half-life in data set [1] (setting [3]) is 47 ± 6 min; in data set [1] (with POP inhibitor KYP-2047 at 50 µM, n = 3, read-out: t1/2 in 20% (w/v) Brain Homogenate), > 1440 min; in data set [2] (37 °C), 100 ± 7 min; in data set [2] (with POP inhibitor KYP-2047 at 50 µM), 115 ± 13 min. Also, the “t1/2 in Plasma” value in data set [2] (with POP inhibitor KYP-2047 at 50 µM, listed as prodrug) is recorded as “did not change”.
